In US5843437A, “A82846 antibiotics” (Eli Lilly and Company, priority 1995, dated 1998):
In brackets after ≈: the same amount, converted by molar mass. Bridge positions count the residues as written; N and C are the ends. Square brackets hold non-standard residues; d marks the D form. Peptide text beside a SMILES is read from it. * marks the point of attachment. Ileψ(thiazoline)Cys = CC[C@H](C)[C@H](N)C1=N[C@H](C(=O)*)CS1; dOrn = NCCC[C@@H](N)C(=O)O

Key:
[1] = tested on: Escherichia coli EC14; assay type: cell-based; settings: E. coli EC14; agar dilution
Procedure: (§1) The MIC's in Tables VII and VIII were determined by standard agar-dilution assays.

[2] = tested on: Haemophilus influenzae 76; assay type: cell-based; settings: H. influenzae 76, ampicillin-resistant strain; agar dilution
Procedure: as §1

[3] = tested on: Haemophilus influenzae C.L.; assay type: cell-based; settings: H. influenzae C.L., ampicillin-sensitive strain; agar dilution
Procedure: as §1

[4] = tested on: Klebsiella pneumoniae X26; assay type: cell-based; settings: K. pneumoniae X26; agar dilution
Procedure: as §1

[5] = tested on: Pseudomonas aeruginosa X239; assay type: cell-based; settings: P. aeruginosa X239; agar dilution
Procedure: as §1

[6] = tested on: Staphylococcus aureus V41; assay type: cell-based; settings: S. aureus V41, penicillin-resistant strain; agar dilution
Procedure: as §1

[7] = tested on: Staphylococcus aureus X1.1; assay type: cell-based; settings: S. aureus X1.1; agar dilution
Procedure: as §1

[8] = tested on: Staphylococcus aureus X400; assay type: cell-based; settings: S. aureus X400, methicillin-resistant strain; agar dilution
Procedure: as §1

[9] = tested on: Staphylococcus epidermidis 222; assay type: cell-based; settings: S. epidermidis 222; agar dilution
Procedure: as §1

[10] = tested on: Staphylococcus epidermidis 270; assay type: cell-based; settings: S. epidermidis 270; agar dilution
Procedure: as §1

[11] = tested on: Streptococcus Group D 2041; assay type: cell-based; settings: agar dilution
Procedure: as §1

[12] = tested on: Streptococcus Group D X66; assay type: cell-based; settings: agar dilution
Procedure: as §1

[13] = tested on: Streptococcus pneumoniae Park I; assay type: cell-based; settings: S. pneumoniae Park I; agar dilution
Procedure: as §1

[14] = tested on: Streptococcus pyogenes C203; assay type: cell-based; settings: S. pyogenes C203; agar dilution
Procedure: as §1

[15] = tested on: Staphylococcus aureus; assay: protection of mice experimentally infected with test organism (Table X); assay type: in vivo; settings: mice, subcutaneous, 1 and 4 hours postinfection
Procedure: (§2) The A82846 antibiotics have also shown in vivo antimicrobial activity against experimentally-induced infections in laboratory animals. When two doses of test compound were administered to mice experimentally infected with the test organism, the activity observed was measured as an ED50 value [effective dose in mg/kg to protect 50% of the test animals: see Warren Wick, et al., J. Bacteriol. 81, 233-235 (1961)].
(§3) ^a mg/kg × 2; doses administered subcutaneously to mice 1 and 4

[16] = tested on: Streptococcus pneumoniae; assay: as above; assay type: in vivo; settings: mice, subcutaneous, 1 and 4 hours postinfection
Procedure: as §2, §3

[17] = tested on: Streptococcus pyogenes; assay: as above; assay type: in vivo; settings: mice, subcutaneous, 1 and 4 hours postinfection
Procedure: as §2, §3

[18] = tested on: Cultures A82846 and A82846.1; assay: resistance to antibiotics, antibiotic sensitivity discs on seeded agar plates
[19] = tested on: A82846; assay: resistance to antibiotics, sensitivity discs (Table III); assay type: cell-based, Nocardia orientalis; settings: culture A82846
[20] = tested on: N. orientalis; assay: as above; assay type: cell-based, Nocardia orientalis
[21] = tested on: N. aerocolonigenes; assay: as above; assay type: cell-based, Nocardia aerocolonigenes

## CN[C@@H](CC(C)C)C(=O)N[C@H]1C(=O)N[C@H](CC(N)=O)C(=O)N[C@H]2C(=O)N[C@H]3C(=O)N[C@@H](C(=O)NC(C(=O)O)c4cc(O)cc(O)c4-c4cc3ccc4O)[C@@H](O[C@H]3C[C@](C)(N)[C@H](O)[C@@H](C)O3)c3ccc(cc3)Oc3cc2cc(c3O[C@H]2O[C@@H](CO)[C@@H](O)[C@H](O)[C@@H]2O[C@H]2C[C@](C)(N)[C@H](O)[C@@H](C)O2)Oc2ccc(cc2)[C@@H]1O (stereo partly drawn) [A82846C]
[1]
  MIC: -- (Not active at 128 mcg/mL, the highest level tested)
[2]
  MIC: -- (Not active at 128 mcg/mL, the highest level tested)
[3]
  MIC: -- (Not active at 128 mcg/mL, the highest level tested)
[4]
  MIC: -- (Not active at 128 mcg/mL, the highest level tested)
[5]
  MIC: -- (Not active at 128 mcg/mL, the highest level tested)
[6]
  MIC: 1 µg/mL (≈ 0.656 µM)
[7]
  MIC: 1 µg/mL (≈ 0.656 µM)
[8]
  MIC: 1 µg/mL (≈ 0.656 µM)
[9]
  MIC: 1 µg/mL (≈ 0.656 µM)
[10]
  MIC: 1 µg/mL (≈ 0.656 µM)
[11]
  MIC: 4 µg/mL (≈ 2.63 µM)
[12]
  MIC: 2 µg/mL (≈ 1.31 µM)
[13]
  MIC: 2 µg/mL (≈ 1.31 µM)
[14]
  MIC: 1 µg/mL (≈ 0.656 µM)
[15]
  ED50 Value: 2.18 mg/kg × 2
[16]
  ED50 Value: 5.87 mg/kg × 2
[17]
  ED50 Value: 2.71 mg/kg × 2

## CC[C@H](C)[C@H](N)C1=N[C@H](C(=O)N[C@@H](CC(C)C)C(=O)N[C@H](CCC(=O)O)C(=O)N[C@H](C(=O)N[C@H]2CCCCNC(=O)[C@H](CC(N)=O)NC(=O)[C@@H](CC(=O)O)NC(=O)[C@H](Cc3cnc[nH]3)NC(=O)[C@@H](Cc3ccccc3)NC(=O)[C@H]([C@@H](C)CC)NC(=O)[C@@H](CCCN)NC2=O)[C@@H](C)CC)CS1 [bacitracin] ({Ileψ(thiazoline)Cys}-L[dE]IK[dOrn]I[dF]H[dD]N; lactam 4-C)
[18]; disc 10 units
  antibiotic resistance: resistant

## CC(=O)OCC1=C(C(=O)O)N2C(=O)[C@@H](NC(=O)Cc3cccs3)[C@H]2SC1 [cephalothin]
[18]; disc 30 μg
  antibiotic resistance: resistant

## O=C(N[C@H](CO)[C@H](O)c1ccc([N+](=O)[O-])cc1)C(Cl)Cl [chloramphenicol]
[18]; disc 30 μg
  antibiotic resistance: sensitive

## CC[C@H]1OC(=O)[C@H](C)[C@@H](O[C@H]2C[C@@](C)(OC)[C@@H](O)[C@H](C)O2)[C@H](C)[C@@H](O[C@@H]2O[C@H](C)C[C@H](N(C)C)[C@H]2O)[C@](C)(O)C[C@@H](C)C(=O)[C@H](C)[C@@H](O)[C@]1(C)O [erythromycin]
[18]; disc 15 μg
  antibiotic resistance: resistant

## CCC[C@@H]1C[C@@H](C(=O)N[C@@H]([C@H]2O[C@H](SC)[C@H](O)[C@@H](O)[C@H]2O)[C@@H](C)O)N(C)C1 [lincomycin]
[18]; disc 2 μg
  antibiotic resistance: resistant

## C1N2CN3CN1CN(C2)C3 [mandelamine]
[18]; disc 3 μg
  antibiotic resistance: sensitive

## CCn1cc(C(=O)O)c(=O)c2ccc(C)nc21 [nalidixic acid]
[18]; disc 30 μg
  antibiotic resistance: resistant

## CO[C@@H]1[C@@H](OC(N)=O)[C@@H](O)[C@H](Oc2ccc3c(O)c(NC(=O)c4ccc(O)c(CC=C(C)C)c4)c(=O)oc3c2C)OC1(C)C [novobiocin]
[18]; disc 30 μg
  antibiotic resistance: sensitive

## CO[C@H]1C[C@H](O[C@H]2[C@H](C)[C@@H](O[C@@H]3O[C@H](C)C[C@H](N(C)C)[C@H]3O)[C@@H](C)C[C@@]3(CO3)C(=O)[C@H](C)[C@@H](O)[C@@H](C)[C@@H](C)OC(=O)[C@@H]2C)O[C@@H](C)[C@@H]1O [oleandomycin]
[18]; disc 15 μg
  antibiotic resistance: resistant

## CC1(C)S[C@@H]2[C@H](NC(=O)Cc3ccccc3)C(=O)N2[C@H]1C(=O)O [penicillin G]
[18]; disc 10 units
  antibiotic resistance: resistant

## CO[C@H]1/C=C/O[C@@]2(C)Oc3c(C)c(O)c4c(O)c(c(/C=N/N5CCN(C)CC5)c(O)c4c3C2=O)NC(=O)/C(C)=C\C=C\[C@H](C)[C@H](O)[C@@H](C)[C@@H](O)[C@@H](C)[C@H](OC(C)=O)[C@@H]1C [rifampin]
[18]; disc 5 μg
  antibiotic resistance: sensitive

## [H]/N=C(/N)N[C@H]1[C@H](O)[C@@H](O)[C@H](O[C@@H]2O[C@@H](C)[C@](O)(C=O)[C@H]2O[C@@H]2O[C@@H](CO)[C@H](O)[C@@H](O)[C@@H]2NC)[C@@H](N/C(N)=N\[H])[C@@H]1O [streptomycin]
[18]; disc 10 μg
  antibiotic resistance: resistant

## Nc1ccc(S(=O)(=O)Nc2ncccn2)cc1 [sulfadiazine]
[18]; disc 300 μg
  antibiotic resistance: resistant

## CN(C)C1C(=O)C(C(N)=O)=C(O)C2(O)C(=O)C3=C(O)c4c(O)cccc4C(C)(O)C3CC12 (stereo not drawn) [tetracycline]
[18]; disc 30 μg
  antibiotic resistance: sensitive

## NC[C@H]1O[C@H](O[C@H]2[C@H](O)[C@@H](O[C@H]3O[C@H](CO)[C@@H](O)[C@H](N)[C@H]3O)[C@H](N)C[C@@H]2N)[C@H](N)C[C@@H]1O [tobramycin]
[18]; disc 10 μg
  antibiotic resistance: resistant

## COc1cc(Cc2cnc(N)nc2N)cc(OC)c1OC [trimethoprim]
[18]; disc 5 μg
  antibiotic resistance: resistant

## gentamicin
[19]; 10 μg
  Resistance to: +
[20]; 10 μg
  Resistance to: -
[21]; 10 μg
  Resistance to: -
[18]; disc 10 μg
  antibiotic resistance: resistant

## neomycin
[19]; 30 μg
  Resistance to: -
[20]; 30 μg
  Resistance to: -
[21]; 30 μg
  Resistance to: -
[18]; disc 30 μg
  antibiotic resistance: sensitive

## polymixin B
[19]; 300 units
  Resistance to: +
[20]; 300 units
  Resistance to: +
[21]; 300 units
  Resistance to: +
[18]; disc 300 units
  antibiotic resistance: resistant
